From patent publication US8367647B2, “Treatment of meconium aspiration syndrome with estrogens” (Pantarhei Bioscience B.V., priority 2007, dated 2013)

Tested on: newborn piglets
Test: Meconium aspiration model: newborn piglets given human meconium by deep intratracheal instillation, monitored 7 days
Format: in vivo
Details: 3 ml/kg of 20% human meconium intratracheal, daily oral dosage of 0.7 mg/kg started within one hour after birth, versus placebo
Experimental: Immediately after birth, twelve newborn piglets are given 3 ml/kg of a 20% solution of human meconium by deep intratracheal instillation. Next, the piglets are randomly assigned to two groups of each six animals. Within one hour after birth, one group is treated with a daily oral dosage of 0.7 mg/kg estetrol whilst the control group is treated with placebo. During the next 7 days the condition of the piglets belonging to both groups are monitored. […] Example 1 was repeated, except that this time one group was treated with a daily oral dosage of 30 μg/kg estradiol instead of estetrol.

SMILES: C[C@]12CC[C@@H]3c4ccc(O)cc4CC[C@H]3[C@@H]1[C@@H](O)[C@@H](O)[C@@H]2O [estetrol]
- incidence of severe complications of MAS versus control group: substantially lower
